How the values were obtained:
[1] = test system: U-266; assay: Antiproliferative activity against human U-266 cells; assay type: functional, cell-based
[2] = biological target: Signal transducer and activator of transcription 3 (Homo sapiens, UniProt P40763); assay: Inhibition of IL-6-induced STAT3 phosphorylation at Tyr705 in human HeLa cells by Western blot analysis; assay type: cell-based
[3] = test system: HeLa; assay: Inhibition of cell growth in human HeLa cells by MTT assay; assay type: functional, cell-based
[4] = test system: MDA-MB-231; assay: Inhibition of cell growth in human MDA-MB-231 cells by MTT assay; assay type: functional, cell-based

Signal transducer and activator of transcription 3, sequence (P40763 whole entry): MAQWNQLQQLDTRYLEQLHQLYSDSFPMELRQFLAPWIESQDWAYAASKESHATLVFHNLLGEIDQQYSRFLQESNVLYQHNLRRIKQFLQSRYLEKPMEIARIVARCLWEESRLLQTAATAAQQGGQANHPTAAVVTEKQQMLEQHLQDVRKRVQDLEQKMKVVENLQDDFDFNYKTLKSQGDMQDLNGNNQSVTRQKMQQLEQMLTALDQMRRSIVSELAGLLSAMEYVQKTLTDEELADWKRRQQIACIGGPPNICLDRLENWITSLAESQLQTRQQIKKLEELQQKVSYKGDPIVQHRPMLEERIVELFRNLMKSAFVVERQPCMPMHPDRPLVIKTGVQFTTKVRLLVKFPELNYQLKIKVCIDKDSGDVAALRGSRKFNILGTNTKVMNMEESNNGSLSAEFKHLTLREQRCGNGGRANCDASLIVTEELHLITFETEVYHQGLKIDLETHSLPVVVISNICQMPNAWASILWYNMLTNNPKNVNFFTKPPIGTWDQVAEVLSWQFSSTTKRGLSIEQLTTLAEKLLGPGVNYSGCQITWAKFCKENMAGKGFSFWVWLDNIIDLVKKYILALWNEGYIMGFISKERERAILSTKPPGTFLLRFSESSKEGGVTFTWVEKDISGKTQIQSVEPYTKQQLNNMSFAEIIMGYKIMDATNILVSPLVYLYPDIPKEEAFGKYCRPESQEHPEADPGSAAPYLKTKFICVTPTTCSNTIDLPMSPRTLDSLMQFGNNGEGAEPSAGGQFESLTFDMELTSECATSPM

Compound | IC50 [2] | inhibition ([2]; dose <= 100.0 µM) | IC50 [3] | IC50 [4] | IC50 [1]
C=C1C2=C(C(=O)N1OC)[C@@H](O)[C@@](C)(O)[C@@H](CCCCC)O2 | 9.2 µM | – | 4.2 µM | 16.2 µM | –
C=C1C2=C(C(=O)N1OC)[C@H](O)[C@@](C)(O)[C@@H](CCCCC)O2 | 7.3 µM | – | 6.1 µM | 19.8 µM | –
C=C1C2=C(C(=O)N1OC)[C@@H](O)[C@](C)(O)[C@@H](CCCCC)O2 | 6.6 µM | – | 4.2 µM | 8.9 µM | –
O=[N+]([O-])c1ccc2c(c1)S(=O)(=O)C=C2 | < 6.3 µM | – | 0.57 µM | 3.4 µM | –

Second part, led by results:

IC50 [2] | inhibition ([2]; dose <= 100.0 µM) | IC50 [3] | IC50 [4] | Compound | IC50 [1]
13.5 µM | Dose-dependent-effect | 8.8 µM | 29.7 µM | C=C1C2=C(C(=O)N1OC)[C@H](O)[C@@](C)(O)[C@H](CCCCC)O2 | 6.7 µM
20.2 µM | – | 8.4 µM | 24.2 µM | C=C1C2=C(C(=O)N1OC)[C@@H](O)[C@@](C)(O)[C@H](CCCCC)O2 | –
> 100 µM | – | > 50 µM | > 50 µM | CCCCC[C@@H]1OC2=C(C(=O)N(OC)C2=O)[C@H](O)[C@@]1(C)O | –

From ChEMBL document CHEMBL6074656, “Biological evaluation of signal transducer and activator of transcription 3 (STAT3) targeting by phaeosphaeride A and its analogs” (Bioorg Med Chem Lett, 2024)
